This passage reports IC50 results from BindingDB's records for patent US9718819 (Merck Sharp & Dohme, 2017).

This assay concerns the target Gag-Pol polyprotein (Human immunodeficiency virus type 1 group M subtype B (isolate HXB2), UniProt P04585). The assay is described as follows: HIV-1 Reverse Transcriptase Inhibitory Assay. Particulars: pH 7.8; 25 °C. An excerpt:
The heterodimeric nucleic acid substrate used in the HIV-1 RT polymerase reactions was generated by annealing the DNA primer, biotinylated pD500 (Sigma Aldrich, USA, 5′-biotin-ttg aaa tga ctg cgg tac ggc-3′), SEQ ID NO. 1 to the nucleotide RNA template t500 (derived from hepatitis C virus [HCV] sequence, IBA, Germany, 5′-GAGGUUCAGGUGGUUUCCACCGCAACACAAUCCUUCCUGGCGACCUGCGUCAACGGCGUGUGUUGGACCGUUUACCAUGGUGCUGGCUCAAAGACCUUAGCCGGCCCAAAGGGGCCAAUCACCCAGAUGUACACUAAUGUGGACCAGGACCUCGUCGGCUGGCAGGCGCCCCCCGGGGCGCGUUCCUUGACACCAUGCACCUGUGGCAGCUCAGACCUUUACUUGGUCACGAGACAUGCUGACGUCAUUCCGGUGCGCCGGCGGGGCGACAGUAGGGGGAGCCUGCUCUCCCCCAGGCCUGUCUCCUACUUGAAGGGCUCUUCGGGUGGUCCACUGCUCUGCCCUUCGGGGCACGCUGUGGGCAUCUUCCGGGCUGCCGUAUGCACCCGGGGGGUUGCGAAGGCGGUGGACUUUGUGCCCGUAGAGUCCAUGGAAACUACUAUGCGGUCUCCGGUCUUCACGGACAACUCAUCCCCCCCGGCCGUACCGCAGUCAUUUCAA-3′), SEQ ID NO 2). […] The mixture was then preincubated on an orbital shaker for 30 min at room temperature in microtiter plates (Costar 3365, Corning, USA). A polymerization reaction was initiated by the addition of RNA template/pD500 DNA primer hybrid (16.6 nM final of RNA/DNA hybrid) and dNTPs (2 μM dATP, dGTP, dCTP and 66.6 nM Ru-dUTP (Meso Scale Discovery, USA)). Plate was sealed and incubated for 5-10 min at room temperature on an orbital shaker. Plate was then incubated for 90 min at 37° C. and reactions quenched with 60 μl quenching buffer (50 mM EDTA, 0.7% BSA, 0.7% Tween-20, 0.017% sodium azide in PBS). The resulting solution was incubated at room temperature for an additional 5 min and then 50 μL was transferred to pre-blocked Avidin plates (L15AA, Meso Scale Discovery). Each well of Avidin plate was blocked for 1 h at room temperature with 100 μL 5% BSA in PBS. Blocking solution was removed by tapping vigorously on filter paper to remove all excess liquid. Reaction on pre-blocked avidin plate proceeded for 60 min at room temperature and then contents removed by tapping vigorously on filter paper to remove all excess liquid. After washing plate 3 times with 150 μL 1×PBS and blotting dry between cycles, 150 μL 1× Read Buffer T (4× Read Buffer T, Meso Scale Discovery) was added and incubated for 5 min at room temperature before counting on a Sector Imager […] (Meso Scale Discovery). Titration curves and IC50 values were calculated using a four parameter logisitc fit according to standard procedures. Briefly, % Inhibition=100×((sample raw value)−(mean value of the low control or 0% inhibition))/((mean value of wells representing 100% inhbition)−(mean value of 0% inhbition)). […]

`COc1cc(-c2cc(Cn3cnc(C(F)(F)F)c(Oc4cc(Cl)cc(C#N)c4)c3=O)n[nH]c2=O)ccn1` [US9718819, 79] had an IC50 of 6 nM.

`Cc1cncc(-c2cc(Cn3cnc(C(F)(F)F)c(Oc4cc(Cl)cc(C#N)c4)c3=O)n[nH]c2=O)c1` [US9718819, 80] yielded an IC50 of 14 nM.

`N#Cc1cc(Cl)cc(Oc2c(C(F)(F)F)ncn(Cc3cc(-c4cn[nH]c4)n[nH]c3=O)c2=O)c1` [US9718819, 118] yielded an IC50 of 7 nM.

Compound `Cn1[nH]c(=O)c(Cn2cnc(C(F)(F)F)c(Oc3cc(Cl)cc(C#N)c3)c2=O)cc1=O` [US9718819, 127] showed a 50% inhibitory concentration (IC50) of 434 nM.
